According to patent publication US20250144187A1, “COMBINATION OF HYDROLASES AND ANTI-MICROORGANISM DRUGS AND USES THEREOF” (CENTRE FOR EYE AND VISION RESEARCH LIMITED, priority 2023, published 2025):

What was measured:
MRSA [1] = experiment: High-throughput screening of 1953 FDA-approved compounds with human lysozyme; assay type: cell-based, Staphylococcus aureus; settings: compound 25 μM + 1 mg/ml lysozyme, 24-hour
Experimental: (§1) 1) High-throughput screening. According to standard screening method [Zhong. […] Commun. 11, 523 (2020)], 1953 FDA-approved compounds from our drugs library at a fixed concentrations of 25 μM were screened against methicillin-resistant Staphylococcus aureus (MRSA) and Staphylococcus epidermis (a coagulase negative Staphylococci, MRSE), in combination with human lysozyme. Specifically, these compounds were added into bacterial suspensions (1×10^5 CFU/ml, in LB medium) in the absence or presence of 1 mg/ml lysozyme. LB medium without bacteria served as background group. Then, the real-time growth curvet of MRSA were monitored per hour and for 24 hours. Absorbance at 600 am (OD600) of bacterial culture at the time point of 24-hour was also measured. The inhibition ratio (%) was calculated as (ODcontrol−ODsample)/(ODcontrol−ODbackground)×100%. […] Herein, the relative and apparent inhibition ratios indicated the combination effect and potential toxicity of compound, respectively. Synergy effect was defined as the relative inhibition ratio of ≥90%. All assays were performed in triplicate.

MRSE [2] = experiment: as above; assay type: cell-based, Staphylococcus epidermis; settings: compound 25 μM + 1 mg/ml lysozyme, 24-hour
Experimental: as §1

MRSE [3] = experiment: High-throughput screening of 4989 compounds with human lysozyme; assay type: cell-based, Staphylococcus epidermis; settings: for MRSE Combination / MRSE Drug only: OD600 at 24-hour; for MRSE Combination: compound 2.5 μM + 1 mg/ml lysozyme; for MRSE Drug only: compound 2.5 μM without lysozyme; for MRSE Inhibition ratio (%): compound 2.5 μM + 1 mg/ml lysozyme relative to compound only
MRSA [4] = experiment: as above; assay type: cell-based, Staphylococcus aureus; settings: for MRSA Combination / MRSA Drug only: OD600 at 24-hour; for MRSA Combination: compound 2.5 μM + 1 mg/ml lysozyme; for MRSA Drug only: compound 2.5 μM without lysozyme; for MRSA Inhibition ratio (%): compound 2.5 μM + 1 mg/ml lysozyme relative to compound only
Experimental: 1) High-throughput screening. […] Specifically, these compounds were added into bacterial suspensions (1×10^6 CFU/ml) in the […] microliter plate, in which each well contained 50 μl of lysogeny broth (LB) medium with or without 1 mg/ml lysozyme. LB medium in the absence of bacteria served as background group. Then, the real-time growth curves of MRSA were monitored per hour and for 24 hours. Experiments were performed with the biological replicates. Fly analyzing the absorbance 600 nm (OD600) of bacterial culture at the time point of 24-hour, the inhibition ratio (%) was calculated according to (ODcontrol−ODsample)/(ODcontrol−ODbackground)×100%. Here, the relative and apparent inhibition ratios were figured out by using the absorbance of bacterial suspension only containing compound and that without any drug treatment as ODcontrol, respectively. The relative and apparent inhibition ratios indicated the combination effect and potential toxicity of compound in combination effect. Synergy effect was defined as the relative inhibition ratio of ≥90%.

MRSA [5] = experiment: Check board broth micro-dilution assay, tedizolid phosphate with lysozyme; assay type: cell-based, Staphylococcus aureus; settings: poly-l-lysine in place of lysozyme, combined with tedizolid phosphate
Experimental: 2) Check board broth micro-dilution assays. According to standard two-fold dilution method [Sun. H et al., Nat. Commun. 11, 5263 (2020) tedizolid phosphate at different concentrations were added into fresh LB medium (or trypticase soy troth medium with 5% defibrinated horse blood) containing different concentrations of human lysozyme in 96-well plate. Then, 20 μl of 1.0×10^7 CFU/ml logarithmic cultures of MRSA or MRSE were added into each well of the plate and co-incubated overnight. Drug-free LB medium in the absence or presence of bacteria served as background control and growth control group, respectively. […] Thus, there would be a series of FICI values. In most of cases, the lowest one among these values was listed to reflect the best achieving degree of combination therapy. In terms of the lowest FICI, FICI≤0.5, 0.5<FICI<1 or FICI≥1, would indicate the combination has synergy, part synergy or non-synergy effects, respectively.

| Compound | Growth inhibition ratio (mean ± SD, %) MRSA (MRSA [1]) [%] | Growth inhibition ratio (mean ± SD, %) MRSE (MRSE [2]) [%] | MRSE Combination (MRSE [3]) | MRSE Drug only (MRSE [3]) | MRSE Inhibition ratio (%) (MRSE [3]) | MRSA Combination (MRSA [4]) | MRSA Drug only (MRSA [4]) | MRSA Inhibition ratio (%) (MRSA [4]) | FICI (MRSA [5]) |
| --- | --- | --- | --- | --- | --- | --- | --- | --- | --- |
| C[C@@H](O)[C@H]1C(=O)N2C(C(=O)O)=C(S[C@@H]3CN[C@H](CNS(N)(=O)=O)C3)[C@H](C)[C@H]12 [Doripenem Hydrate] | 82.4 ± 5.63 | 11.18 ± 6.16 |  |  |  |  |  |  |  |
| CCOC(=O)c1ccc(O)c(O)c1 [Ethyl 3,4-dihydroxybenzoate] |  |  | 0.0703 | 0.6328 | 96.68 | 0.064 | 0.5805 | 97.54 |  |
| N#C/C(=C1/SC[C@@H](c2ccc(Cl)cc2Cl)S1)n1ccnc1 [Luliconazole] | −9.69 ± 5.58 | 22.39 ± 10.76 |  |  |  |  |  |  |  |
| C[C@@H](O)[C@H]1C(=O)N2C(C(=O)O)=C(S[C@@H]3CN[C@H](C(=O)N(C)C)C3)[C@H](C)[C@H]12 [Meropenem Trihydrate] | 48.19 ± 11.14 | 20.45 ± 65.79 |  |  |  |  |  |  |  |
| CC1(C)S[C@@H]2[C@H](NC(=O)[C@H](NC(=O)N3CCN(S(C)(=O)=O)C3=O)c3ccccc3)C(=O)N2[C@H]1C(=O)O [Mezlocillin Sodium] | 90.46 ± 1.59 | 6.93 ± 8.22 |  |  |  |  |  |  |  |
| CO[C@@]12[C@H](COC(N)=O)C3=C(C(=O)C(C)=C(N)C3=O)N1C[C@@H]1N[C@@H]12 [Mitomycin C] | 66.02 ± 45.26 | 39.12 ± 43.57 |  |  |  |  |  |  |  |
| CCC(=O)c1ccc(O)cc1 [Paroxypropione] |  |  | 0.0445 | 0.5254 | 101.37 | 0.0655 | 0.3624 | 95.34 |  |
| CO[C@H]1/C=C/O[C@@]2(C)Oc3c(C)c(O)c4c(c3C2=O)C(=O)C=C(NC(=O)/C(C)=C\C=C\[C@H](C)[C@H](O)[C@@H](C)[C@@H](O)[C@@H](C)[C@H](OC(C)=O)[C@@H]1C)C4=O [Rifamycin S] |  |  | 0.0967 | 0.5935 | 91.58 | 0.074 | 0.1545 | 77.78 |  |
| CC1(C)S[C@@H]2[C@H](NC(=O)[C@H](N)c3ccccc3)C(=O)N2[C@H]1C(=O)OCOC(=O)[C@@H]1N2C(=O)C[C@H]2S(=O)(=O)C1(C)C [Sultamicillin] | 58.05 ± 16.75 | 45.94 ± 13.49 |  |  |  |  |  |  |  |
| C#Cc1cccc(Nc2nc3ccccc3nc2Nc2cccc(C#C)c2)c1.Cl.Cl [TD52 (dihydrochloride)] |  |  | 0.1057 | 0.402 |  | 0.0926 | 0.6512 | 93.07 |  |
| CC[C@H]1OC(=O)C[C@@H](O)[C@H](C)[C@@H](O[C@@H]2O[C@H](C)[C@@H](O)[C@H](N(C)C)[C@H]2O)[C@@H](CCN2C[C@H](C)C[C@H](C)C2)C[C@@H](C)C(=O)/C=C/C(C)=C/[C@@H]1CO[C@@H]1O[C@H](C)[C@@H](O)[C@@H](OC)[C@H]1OC [Tilmicosin] | 91.59 ± 0.63 | 4.91 ± 8.1 |  |  |  |  |  |  |  |
| SCP1-IN-1 |  |  | 0.0698 | 0.1091 | 67.64 | 0.0766 | 0.1762 | 79.55 |  |
| Sertaconazole (nitrate) |  |  | 0.079 | 0.4977 | 93.73 | 0.2603 | 0.593 | 61.38 |  |
| poly-l-lysine |  |  |  |  |  |  |  |  | 0.375 |
